What all share (assay): Glasshouse assay for herbicidal activity (pre- and post-emergence), percentage phytotoxicity
Common to all, as to assay type: in vivo

Test [1] concerns Alopecurus myosuroides (ALOMY). Conditions: Alopecurus myosuroides. A digest of the protocol: (§1)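 Sow seed in standard soil in pots; apply test herbicide after 1 day (PRE) or about 12 days (POST). Grow on in the glasshouse, watering twice daily, cool-season species at 20/16 °C and warm-season at 24/18 °C. Score visible damage (0–100%) at 20 or 15 DAA respectively.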
A further test deals with Avena fatua (AVEFA). Conditions: Avena fatua. The method in brief:
as §1

Test [2] has as its system Echinochloa crus-galli (ECHCG). The settings on record: Echinochloa crus-galli. A digest of the protocol: as §1
The subject of another test is Lolium perenne (LOLPE). The settings on record: Lolium perenne. A digest of the protocol: as §1
[3] abbreviates: post-emergence, 360 h, 250 g/ha, post-emergence, 15 DAA, visual assessment (100%=total damage, 0%=no damage), read-out: Post-emergence herbicidal activity (percentage phytotoxicity) ALOMY POST.
Where [4] appears, read: pre-emergence, 480 h, 250 g/ha, pre-emergence, 20 DAA, visual assessment (100%=total damage, 0%=no damage), read-out: Pre-emergence herbicidal activity (percentage phytotoxicity) ALOMY PRE.
[5] abbreviates: post-emergence, 360 h, 250 g/ha, post-emergence, 15 DAA, visual assessment (100%=total damage, 0%=no damage), read-out: Post-emergence herbicidal activity (percentage phytotoxicity) AVEFA POST.
Setting [6] is: pre-emergence, 480 h, 250 g/ha, pre-emergence, 20 DAA, visual assessment (100%=total damage, 0%=no damage), read-out: Pre-emergence herbicidal activity (percentage phytotoxicity) AVEFA PRE.
Setting [7] is: post-emergence, 360 h, 250 g/ha, post-emergence, 15 DAA, visual assessment (100%=total damage, 0%=no damage), read-out: Post-emergence herbicidal activity (percentage phytotoxicity) ECHCG POST.
Setting [8] is: pre-emergence, 480 h, 250 g/ha, pre-emergence, 20 DAA, visual assessment (100%=total damage, 0%=no damage), read-out: Pre-emergence herbicidal activity (percentage phytotoxicity) ECHCG PRE.
Setting [9] is: post-emergence, 360 h, 250 g/ha, post-emergence, 15 DAA, visual assessment (100%=total damage, 0%=no damage), read-out: Post-emergence herbicidal activity (percentage phytotoxicity) LOLPE POST.
Where [10] appears, read: pre-emergence, 480 h, 250 g/ha, pre-emergence, 20 DAA, visual assessment (100%=total damage, 0%=no damage), read-out: Pre-emergence herbicidal activity (percentage phytotoxicity) LOLPE PRE.
[11] abbreviates: post-emergence, 360 h, Rate 250 g/ha, post-emergence, assessed visually 15 DAA, 100%=total damage, 0%=no damage, read-out: Post-emergence herbicidal activity (percentage phytotoxicity) ALOMY POST.
Where [12] appears, read: pre-emergence, 480 h, Rate 250 g/ha, pre-emergence, assessed visually 20 DAA, 100%=total damage, 0%=no damage, read-out: Pre-emergence herbicidal activity (percentage phytotoxicity) ALOMY PRE.
Setting [13] is: post-emergence, 360 h, Rate 250 g/ha, post-emergence, assessed visually 15 DAA, 100%=total damage, 0%=no damage, read-out: Post-emergence herbicidal activity (percentage phytotoxicity) AVEFA POST.
Where [14] appears, read: pre-emergence, 480 h, Rate 250 g/ha, pre-emergence, assessed visually 20 DAA, 100%=total damage, 0%=no damage, read-out: Pre-emergence herbicidal activity (percentage phytotoxicity) AVEFA PRE.
The mark [15] stands for this setting: post-emergence, 360 h, Rate 250 g/ha, post-emergence, assessed visually 15 DAA, 100%=total damage, 0%=no damage, read-out: Post-emergence herbicidal activity (percentage phytotoxicity) ECHCG POST.
[16] abbreviates: pre-emergence, 480 h, Rate 250 g/ha, pre-emergence, assessed visually 20 DAA, 100%=total damage, 0%=no damage, read-out: Pre-emergence herbicidal activity (percentage phytotoxicity) ECHCG PRE.
[17] abbreviates: post-emergence, 360 h, Rate 250 g/ha, post-emergence, assessed visually 15 DAA, 100%=total damage, 0%=no damage, read-out: Post-emergence herbicidal activity (percentage phytotoxicity) LOLPE POST.
[18] abbreviates: pre-emergence, 480 h, Rate 250 g/ha, pre-emergence, assessed visually 20 DAA, 100%=total damage, 0%=no damage, read-out: Pre-emergence herbicidal activity (percentage phytotoxicity) LOLPE PRE.

Molecules are shown by their SMILES. Read-outs that look alike come from different tables or passages of the source.

For the molecule `C=C(Cl)CNC(=O)CC1CC(=O)C(c2c(C)cc(C)cc2C)C1=O` (stereo not drawn) [Compound B133], the pest or weed control at 250 g/ha in test [1] (setting [3]) is 50%; in test [1] (setting [4]), 80%; in the test with Avena fatua (AVEFA) (setting [5]) it was 60%; in the test with Avena fatua (AVEFA) (setting [6]), 0%; in test [2] (setting [7]) it was 50%; in test [2] (setting [8]), 80%. The pest or weed control at 250 g/ha with Lolium perenne (LOLPE) (setting [9]) is 90%; in the test with Lolium perenne (LOLPE) (setting [10]), 100%.

Regarding `C=CCCNC(=O)CC1CC(=O)C(c2c(C)cc(-n3cc(Cl)cn3)cc2C)C1=O` (stereo not drawn) [Compound A76], the pest or weed control at 250 g/ha in test [1] (setting [11]) came out at 100%; in test [1] (setting [12]), 90%; with Avena fatua (AVEFA) (setting [13]), 90%; in the test with Avena fatua (AVEFA) (setting [14]), 90%; in test [2] (setting [15]) it was 100%; in test [2] (setting [16]) it was 100%. In addition, the pest or weed control at 250 g/ha is 80% in the test with Lolium perenne (LOLPE) (setting [17]) and 90% in the test on Lolium perenne (LOLPE) (setting [18]).

On to `CCc1cc(-n2cc(Cl)cn2)cc(C)c1C1C(=O)CC(CC(=O)NC(C)(C)C)C1=O` (stereo not drawn) [Compound B135], for which the pest or weed control at 250 g/ha in test [1] (setting [3]) was 100%; in test [1] (setting [4]), 100%; with Avena fatua (AVEFA) (setting [5]), 100%; with Avena fatua (AVEFA) (setting [6]), 90%; in test [2] (setting [7]), 100%; in test [2] (setting [8]) it was 100%. Also, the pest or weed control at 250 g/ha in the test with Lolium perenne (LOLPE) (setting [9]) and in the test with Lolium perenne (LOLPE) (setting [10]) was 100% throughout.

Consider `COCC(C)(C)NC(=O)CC1CC(=O)C(c2c(C)cc(-c3ncc(Cl)cn3)cc2C)C1=O` (stereo not drawn) [Compound B344], for which the pest or weed control at 250 g/ha stood at 100% in test [1] (post-emergence, 360 h, Rate 250 g/ha, post-emergence, visual assessment 15 DAA, 100%=total damage, 0%=no damage, read-out: Post-emergence herbicidal activity (percentage phytotoxicity) ALOMY POST); 90% in test [1] (pre-emergence, 480 h, Rate 250 g/ha, pre-emergence, visual assessment 20 DAA, 100%=total damage, 0%=no damage, read-out: Pre-emergence herbicidal activity (percentage phytotoxicity) ALOMY PRE); 100% in the test with Avena fatua (AVEFA) (post-emergence, 360 h, Rate 250 g/ha, post-emergence, visual assessment 15 DAA, 100%=total damage, 0%=no damage, read-out: Post-emergence herbicidal activity (percentage phytotoxicity) AVEFA POST); 80% in the test with Avena fatua (AVEFA) (pre-emergence, 480 h, Rate 250 g/ha, pre-emergence, visual assessment 20 DAA, 100%=total damage, 0%=no damage, read-out: Pre-emergence herbicidal activity (percentage phytotoxicity) AVEFA PRE); 100% in test [2] (post-emergence, 360 h, Rate 250 g/ha, post-emergence, visual assessment 15 DAA, 100%=total damage, 0%=no damage, read-out: Post-emergence herbicidal activity (percentage phytotoxicity) ECHCG POST); 100% in test [2] (pre-emergence, 480 h, Rate 250 g/ha, pre-emergence, visual assessment 20 DAA, 100%=total damage, 0%=no damage, read-out: Pre-emergence herbicidal activity (percentage phytotoxicity) ECHCG PRE). For the same molecule, the pest or weed control at 250 g/ha amounted to 90% in the test on Lolium perenne (LOLPE) (post-emergence, 360 h, Rate 250 g/ha, post-emergence, visual assessment 15 DAA, 100%=total damage, 0%=no damage, read-out: Post-emergence herbicidal activity (percentage phytotoxicity) LOLPE POST) and 80% with Lolium perenne (LOLPE) (pre-emergence, 480 h, Rate 250 g/ha, pre-emergence, visual assessment 20 DAA, 100%=total damage, 0%=no damage, read-out: Pre-emergence herbicidal activity (percentage phytotoxicity) LOLPE PRE).

As for `Cc1cc(-c2ncc(Cl)cc2F)cc(C)c1C1C(=O)CC(CC(=O)NCc2ncc(C(F)(F)F)cc2Cl)C1=O` (stereo not drawn) [Compound A113], the pest or weed control at 250 g/ha in test [1] (setting [11]) was 100%; in test [1] (setting [12]), 80%; with Avena fatua (AVEFA) (setting [13]), 100%; with Avena fatua (AVEFA) (setting [14]) it was 90%; in test [2] (setting [15]), 100%; in test [2] (setting [16]), 100%. The pest or weed control at 250 g/ha with Lolium perenne (LOLPE) (setting [17]) is 100%; with Lolium perenne (LOLPE) (setting [18]), 90%.

Turning to `C=C(F)CNC(=O)CC1CC(=O)C(c2c(C)cc(-c3ncc(F)cc3F)cc2C)C1=O` (stereo not drawn) [Compound B304], the pest or weed control at 250 g/ha in test [1] (post-emergence, 360 h, POST-emergence, rate 250 g/ha, visual score 15 DAA (100%=total damage, 0%=no damage), read-out: Post-emergence herbicidal activity (percentage phytotoxicity) ALOMY POST) is 100%; in test [1] (pre-emergence, 480 h, PRE-emergence, rate 250 g/ha, visual score 20 DAA (100%=total damage, 0%=no damage), read-out: Pre-emergence herbicidal activity (percentage phytotoxicity) ALOMY PRE) it was 100%; in the test with Avena fatua (AVEFA) (post-emergence, 360 h, POST-emergence, rate 250 g/ha, visual score 15 DAA (100%=total damage, 0%=no damage), read-out: Post-emergence herbicidal activity (percentage phytotoxicity) AVEFA POST), 100%; in the test with Avena fatua (AVEFA) (pre-emergence, 480 h, PRE-emergence, rate 250 g/ha, visual score 20 DAA (100%=total damage, 0%=no damage), read-out: Pre-emergence herbicidal activity (percentage phytotoxicity) AVEFA PRE), 100%; in test [2] (post-emergence, 360 h, POST-emergence, rate 250 g/ha, visual score 15 DAA (100%=total damage, 0%=no damage), read-out: Post-emergence herbicidal activity (percentage phytotoxicity) ECHCG POST), 100%; in test [2] (pre-emergence, 480 h, PRE-emergence, rate 250 g/ha, visual score 20 DAA (100%=total damage, 0%=no damage), read-out: Pre-emergence herbicidal activity (percentage phytotoxicity) ECHCG PRE) it was 90%. The pest or weed control at 250 g/ha stood at 100% with Lolium perenne (LOLPE) (post-emergence, 360 h, POST-emergence, rate 250 g/ha, visual score 15 DAA (100%=total damage, 0%=no damage), read-out: Post-emergence herbicidal activity (percentage phytotoxicity) LOLPE POST) and 100% in the test with Lolium perenne (LOLPE) (pre-emergence, 480 h, PRE-emergence, rate 250 g/ha, visual score 20 DAA (100%=total damage, 0%=no damage), read-out: Pre-emergence herbicidal activity (percentage phytotoxicity) LOLPE PRE).

As for `Cc1cc(-c2ccc(Cl)cn2)cc(C)c1C1C(=O)CC(CC(=O)NC(C)(C)C)C1=O` (stereo not drawn) [Compound A41], the pest or weed control at 250 g/ha in test [1] (setting [11]) turned out to be 100%; in test [1] (setting [12]), 100%; in the test on Avena fatua (AVEFA) (setting [13]), 100%; in the test on Avena fatua (AVEFA) (setting [14]), 70%; in test [2] (setting [15]), 100%; in test [2] (setting [16]) it was 100%. Moreover, the pest or weed control at 250 g/ha in the test on Lolium perenne (LOLPE) (setting [17]) and in the test on Lolium perenne (LOLPE) (setting [18]) was 100% in each case.

On to `COC(=O)c1cccc(CNC(=O)CC2CC(=O)C(c3c(C)cc(C)cc3C)C2=O)c1` (stereo not drawn) [Compound B10], for which the pest or weed control at 250 g/ha amounted to 30% in test [1] (setting [3]); 0% in test [1] (setting [4]); 70% in the test on Avena fatua (AVEFA) (setting [5]); 0% with Avena fatua (AVEFA) (setting [6]); 70% in test [2] (setting [7]); 0% in test [2] (setting [8]). Besides, the pest or weed control at 250 g/ha with Lolium perenne (LOLPE) (setting [9]) was found to be 30%; in the test on Lolium perenne (LOLPE) (setting [10]), 0%.

For the molecule `Cc1cc(-c2ncc(Cl)cc2F)cc(C)c1C1C(=O)CC(CC(=O)NCc2cnc(Cl)s2)C1=O` (stereo not drawn) [Compound A128], the pest or weed control at 250 g/ha worked out at 100% in test [1] (setting [11]); 80% in test [1] (setting [12]); 100% with Avena fatua (AVEFA) (setting [13]); 80% in the test on Avena fatua (AVEFA) (setting [14]); 100% in test [2] (setting [15]); 100% in test [2] (setting [16]). Moreover, the pest or weed control at 250 g/ha in the test on Lolium perenne (LOLPE) (setting [17]) is 100%; in the test with Lolium perenne (LOLPE) (setting [18]), 90%.

For the origin of these results see US10206394B2, “Herbicidal compounds” (Syngenta Participations AG, priority 2014, dated 2019).
